Laboratory results taken from patent US6759238B1, “Multidrug resistance associated proteins and uses thereof” (priority 1999, dated 2004).
Several values for one entry are separate records, joined by “and”; a condition that tells them apart may be missing. Equal entries are not always repeated. Where two headings read alike, the source gives them in different places.

Assays:
[1] = test system: AZTMP efflux in CEM-r1 cells; experiment: Effect of inhibitors of ATP-coupled transporters on AZTMP efflux; format: cell-based, human; details: PGA1 50 μM, DPM 10 μM
Method: (§1) The suspension was centrifuged at 3,300 rpm for 7 minutes. All but 1 ml of the supernatant medium containing the free drug was aspirated. […] The cell pellet was then washed with ice-cold medium and resuspended at the same concentration in drug-free medium and maintained at 37° C.

[2] = test system: AZTMP efflux in CEM-SS cells; experiment: as above; format: cell-based, human; details: PGA1 50 μM, DPM 10 μM
Method: as §1

[3] = Efflux of [3H]-AZT and its metabolites; format: in vitro ADME, human; design: half-life: dose or concentration left out as unconfirmed; details: human, CEMss, read-out: Efflux kinetics, AZTMP t½
Method: (§2) Cells were incubated for 60 minutes with [^3H]-AZT (10 μM) after which they were washed free of radioactivity, resuspended in drug-free medium and the intracellular and the extracellular concentration of [^3H]-AZT were measured. […] At least 80% of the AZTMP present intracellularly in CEM-r1 cells was excreted into the medium in 10 minutes (FIG. 6A).
(§3) Referring to Table 6 in greater detail, efflux kinetics were studied. Transport analysis of PMEA was conducted as previously described^48. […] The cells were then washed free of radioactivity and then incubated in drug-free medium in the presence of sodium azide and 2-deoxy-D-glucose. At various time periods, the amount of intracellular AZTMP was measured. As reported in Table 6, depletion of ATP led to an inhibition of AZTMP efflux (i.e. a significant accumulation of AZTMP in the CEM-r1 cells but not in the CEM-SS cells).
as §1, with “C. […] An aliquot of the top layer (cell free media) was analyzed for the quantitation of AZT and its metabolites.” for “C.”

[4] = test system: CEM-SS cells; experiment: Efflux of [3H]-AZT and its metabolites; format: in vitro ADME, human; design: half-life: dose or concentration left out as unconfirmed; details: CEMss, no treatment, after loading with [3H]-AZT
Method: as §2, §3
as §1, with “C. […] An aliquot of the top layer (cell free media) was analyzed for the quantitation of AZT and its metabolites.” for “C.”

[5] = Efflux of [3H]-AZT and its metabolites; format: in vitro ADME, human; details: human, read-out: Efflux kinetics, AZTMP t½
Method: as §2, §3
as §1, with “C. […] An aliquot of the top layer (cell free media) was analyzed for the quantitation of AZT and its metabolites.” for “C.”

[6] = test system: CEM-r1 cells; experiment: Efflux of [3H]-AZT and its metabolites; format: in vitro ADME, human
Method: as §2, §3
as §1, with “C. […] An aliquot of the top layer (cell free media) was analyzed for the quantitation of AZT and its metabolites.” for “C.”

[7] = test system: CEM-r1 cells; experiment: Phosphorylation of AZT; format: in vitro ADME, human; details: for Extracellular Concentration / Intracellular Concentration: CEM-r1, 10 μM AZT
Method: (§4) The appearance of the phosphorylated metabolites into the medium was also determined in both the cell lines. AZTDP and AZTTP were not detected in the medium of either CEM-SS or CEM-r1 cells. However, the amount of AZTMP accumulated in the media was approximately 3-fold higher in CEM-r1 cells than in CEM-SS cells.
(§5) The cartridges were conditioned with 10% MeOH Ammonium Phosphate Buffer (5 mM, pH 4.0). The sample was loaded onto the column. […] AZTDP and AZTTP were eluted with 10% MeOH Ammonium Phosphate Buffer (700 mm, pH 4.6).

[8] = test system: CEM-SS cells; experiment: Phosphorylation of AZT; format: in vitro ADME, human; details: 10 μM AZT
Method: as §4, §5

[9] = CEMr-1, no treatment, after loading with [3H]-AZT

SMILES: CCCCC[C@H](O)/C=C/[C@H]1C=CC(=O)[C@@H]1CCCCCCC(=O)O [PGA1, prostaglandin A1]
- Effect on efflux of AZTMP [1]: markedly inhibited
- Effect on efflux of AZTMP [2]: no effect

SMILES: Cc1cn([C@H]2C[C@H](N=[N+]=[N-])[C@@H](COP(=O)(O)O)O2)c(=O)[nH]c1=O [AZTMP, azido-thymidine monophosphate]
- half-life at 10 μM ([3]; Azide + Deoxyglucose): 16.3 min
- half-life ([3]; no treatment, after loading with [3H]-AZT): 17.5 min
- Efflux kinetics, AZTMP t½ [4]: 17.1 min
- half-life at 10 μM ([5]; CEMr-1, Azide + Deoxyglucose): 18.1 min
- half-life at 10 μM [5, 9]: 4.5 min
- Intracellular AZTMP excreted into the medium ([6]; CEM-r1, in 10 minutes): At least 80%
- Efflux kinetics, AZTMP t½ [6, 9]: 4 min and 4.3 min
- Amount accumulated in the media, CEM-r1 vs CEM-SS ([7]; 10 μM AZT): approximately 3 fold
- Extracellular Concentration ([7]; 4 hours): 132 nM
- Intracellular Concentration ([7]; 4 hours): 13.6 µM
- Extracellular Concentration ([7]; 8 hours): 420 nM
- Intracellular Concentration ([7]; 8 hours): 15.9 µM
- Extracellular Concentration ([7]; 24 hours): 1716 nM
- Intracellular Concentration ([7]; 24 hours): 12.3 µM
- Extracellular Concentration ([8]; 4 hours): 46 nM
- Intracellular Concentration ([8]; 4 hours): 89 µM
- Extracellular Concentration ([8]; 8 hours): 151 nM
- Intracellular Concentration ([8]; 8 hours): 95 µM
- Extracellular Concentration ([8]; 24 hours): 555 nM
- Intracellular Concentration ([8]; 24 hours): 50 µM
